We go through 22 molecules from patent publication US12023319B2, “Carboxylic acid aromatic amides” (priority 2016, dated 2024).

Assay [1] has as its target T1, human Bradykinin B1 receptor (Homo sapiens, UniProt P46663).
T1 construct: host or cells: CHO-K1
T1 sequence (P46663 1-353): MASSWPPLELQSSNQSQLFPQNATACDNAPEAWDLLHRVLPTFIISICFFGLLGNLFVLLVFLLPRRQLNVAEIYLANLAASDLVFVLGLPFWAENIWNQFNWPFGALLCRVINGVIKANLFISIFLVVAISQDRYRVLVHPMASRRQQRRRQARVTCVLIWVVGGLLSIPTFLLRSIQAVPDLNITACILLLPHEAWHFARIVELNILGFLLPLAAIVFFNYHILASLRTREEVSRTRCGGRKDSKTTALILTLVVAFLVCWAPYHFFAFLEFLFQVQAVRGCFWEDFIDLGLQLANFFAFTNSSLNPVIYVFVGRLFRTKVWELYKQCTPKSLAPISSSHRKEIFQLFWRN
Kind of assay: Calcium flux assay (FLIPR), CHO-K1 cells expressing human Bradykinin B1 receptor, absence of 0.1% BSA (hB1 free IC50). The class given is cell-based. To be noted: absence of 0.1% BSA in assay buffer. Summed up:
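Peak FLIPR fluorescence (538 nm) after B1 agonist peptide addition gave IC50s, scaled between DMSO and full block by 20 µM Lys-(Des-Arg-Leu)-Bradykinin. Compounds were preincubated 30 min at 28° C with calcium-dye-loaded CHO-K1 cells expressing human B1, at 8 concentrations in triplicate, 1% DMSO final.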
On the technique in general: A change in cytosolic calcium serves as a functional read-out for many receptors and channels.

Assay [2] concerns the target T2, native human Bradykinin B1 receptor (Homo sapiens, UniProt P46663).
T2 construct: which express native human Bradykinin B1 receptor after induction with human IL-1beta; Coriell Institute; host or cells: IMR-90 human foetal lung fibroblasts, induced with human IL-1beta
T2 sequence (P46663 1-353): T1 sequence (P46663 1-353)
Kind of assay: Calcium flux assay (FLIPR) with IMR-90 human fibroblasts expressing Bradykinin B1 receptor after IL-1beta induction (hB1 IMR-90). The class given is cell-based. To be noted: IMR-90 human fibroblasts after IL-1beta induction, read-out: hB1 IMR90 IC50. The method, then:
Calcium Flux Assay (FLIPR) with Human Fibroblasts Expressing Bradykinin B1 Receptor (hB1 IMR-90)
The Calcium flux Assay was carried out utilising IMR-90 human foetal lung fibroblasts (American Type Culture Collection, Rockville, MD; and Coriell Institute, Camden, New Jersey), which express native human Bradykinin B1 receptor after induction with human IL-1beta.
The fibroblasts were cultured in complete growth media comprised of Dulbecco's modified Eagle's medium (DMEM; Sigma) containing 10% foetal bovine serum, 4 mM L-glutamine, and 1% nonessential amino acids. The cells were maintained in a humidified atmosphere with 5% CO2 at 37° C. and were sub-cultured at a ratio of 1:3, every other day.
For the assay, IMR-90 fibroblasts were harvested using TrypLE Express (GIBCO/Invitrogen) and seeded into 384-well plates (Corning Cellbinding Surface, Cat. 3683) at a density of 15000 cells/well. The following day, cells were treated with 0.35 ng/mL human IL-1beta in 10% FBS/MEM for 3 h to up-regulate Bradykinin B1 receptor. Induced cells were loaded with fluorescent calcium indicator by incubation with 2.5 μM Fluo-4/AM (Invitrogen) at 37° C., 5% CO2 for 2 h in the presence of 2.5 mM probenecid in 1% FBS/MEM. […] Compound examples were assayed at 8 concentrations in triplicate. […] A peptide antagonist Lys-(Des-Arg-Leu)-Bradykinin (Bachem, Brackley) at 20 µM was used to determine the full inhibition as control. IC50 values were determined by the same way described for the FLI PR assay with recombinant cells.

A word on the IC50: it is the concentration that gives 50% inhibition. As to `CCOc1ccc(-c2ccc(NC(=O)C3(c4ccc(OC(F)(F)F)cc4F)CC3)cc2C(=O)O)cn1` [Example 11, 2-(6-Ethoxypyridin-3-yl)-5-[({1-[2-fluoro-4-(trifluoromethoxy)phenyl]cyclopropyl}carbonyl)amino]benzoic acid], the results for the IC50 in assay [1] and in assay [2] were 19 nM and 25 nM, respectively.
Turning to `CC(C)(C)c1ccn(-c2ccc(NC(=O)C3(c4ccc(C(F)(F)F)cc4F)CC3)cc2C(=O)O)n1` [Example 12, 2-(3-tert-Butyl-1H-pyrazol-1-yl)-5-[({1-[2-fluoro-4-(trifluoromethyl)phenyl]cyclopropyl}carbonyl)amino]benzoic acid], the half-maximal inhibitory concentration (IC50) in assay [1] amounted to 1200 nM; in assay [2] it was 2900 nM.
Regarding `CC(C)(C)c1cnn(-c2ccc(NC(=O)C3(c4ccc(OC(F)(F)F)cc4F)CC3)cc2C(=O)O)c1` [Example 13, 2-(4-tert-Butyl-1H-pyrazol-1-yl)-5-[({1-[2-fluoro-4-(trifluoromethoxy)phenyl]cyclopropyl}carbonyl)amino]benzoic acid], the IC50 in assay [1] came to 110 nM; in assay [2] it was 310 nM.
Turning to `Cc1ccc(C2(C(=O)Nc3ccc(-n4cc(C(C)(C)C)cn4)c(C(=O)O)c3)CC2)c(F)c1` [Example 14, 2-(4-tert-Butyl-1H-pyrazol-1-yl)-5-({[1-(2-fluoro-4-methylphenyl)cyclopropyl]carbonyl}amino)benzoic acid], the IC50 in assay [1] came out at 1000 nM; in assay [2], 1100 nM.
In the case of `CC(C)(C)c1cnn(-c2ccc(NC(=O)C3(c4ccc(C(F)(F)F)cc4F)CC3)cc2C(=O)O)c1` [Example 17, 2-(4-tert-Butyl-1H-pyrazol-1-yl)-5-[({1-[2-fluoro-4-(trifluoromethyl)phenyl]cyclopropyl}carbonyl)amino]benzoic acid], the IC50 in assay [1] worked out at 230 nM; in assay [2], 100 nM.
Take `Cc1ccc(-c2ccc(NC(=O)C3(c4ccc(C(F)(F)F)cc4F)CC3)cc2C(=O)O)nc1` [Example 18, 5-[({1-[2-Fluoro-4-(trifluoromethyl)phenyl]cyclopropyl}carbonyl)amino]-2-(5-methylpyridin-2-yl)benzoic acid]: the IC50 in assay [1] is 270 nM; in assay [2] it was 830 nM.
For `Cc1ccc(-c2ccc(NC(=O)C3(c4ccc(C(F)(F)F)cc4F)CC3)cc2C(=O)O)cn1` [Example 19, 5-[({1-[2-Fluoro-4-(trifluoromethyl)phenyl]cyclopropyl}carbonyl)amino]-2-(6-methylpyridin-3-yl)benzoic acid], the IC50 was 67 nM in assay [1] and 130 nM in assay [2].
Take `CCC(F)(F)c1ccc(-c2ccc(NC(=O)C3(c4ccc(F)c(F)c4)CC3)cc2C(=O)O)cn1` [Example 20, 5-({[1-(3,4-Difluorophenyl)cyclopropyl]carbonyl}amino)-2-[6-(1,1-difluoropropyl)pyridin-3-yl]benzoic acid]: the half-inhibitory concentration (IC50) in assay [1] came out at 2500 nM; in assay [2] it was 1700 nM.
Turning to `Cc1ccc(C2(C(=O)Nc3cc(F)c(-c4cnn(C5CCC5)c4)c(C(=O)O)c3)CC2)c(F)c1` [Example 25, 2-(1-Cyclobutyl-1H-pyrazol-4-yl)-3-fluoro-5-({[1-(2-fluoro-4-methylphenyl)cyclopropyl]carbonyl}amino)benzoic acid], the 50% inhibitory concentration (IC50) is 14 nM in assay [1] and 5.9 nM in assay [2].
On to `CCC(F)(F)c1ccc(-c2ccc(NC(=O)C3(c4ccc(C)cc4F)CC3)cc2C(=O)O)cn1` [Example 26, 2-[6-(1,1-Difluoropropyl)pyridin-3-yl]-5-({[1-(2-fluoro-4-methylphenyl)cyclopropyl]carbonyl}amino)benzoic acid], for which the values for the IC50 in assay [1] and in assay [2] were 140 nM and 130 nM, respectively.
For the molecule `CCC(F)(F)c1ccc(-c2ccc(NC(=O)C3(c4ccc(OC(F)(F)F)cc4F)CC3)cc2C(=O)O)cn1` [Example 27, 2-[6-(1,1-Difluoropropyl)pyridin-3-yl]-5-[({1-[2-fluoro-4-(trifluoromethoxy)phenyl]cyclopropyl}carbonyl)amino]benzoic acid], the half-inhibitory concentration (IC50) amounted to 33 nM in assay [1] and 73 nM in assay [2].
`O=C(O)c1cc(NC(=O)C2(c3cccc(Cl)c3)CC2)ccc1-c1cnn(C2CCC2)c1` [Example 28, 5-({[1-(3-Chlorophenyl)cyclopropyl]carbonyl}amino)-2-(1-cyclobutyl-1H-pyrazol-4-yl)benzoic acid]: the IC50 was determined as 300 nM in assay [1] and 460 nM in assay [2].
`O=C(O)c1cc(NC(=O)C2(c3ccc(C(F)(F)F)cc3)CC2)cc(F)c1-c1cnn(C2CCC2)c1` [Example 36, 2-(1-Cyclobutyl-1H-pyrazol-4-yl)-3-fluoro-5-[({1-[4-(trifluoromethyl)phenyl]cyclopropyl}carbonyl)amino]benzoic acid]: the IC50 was determined as 6 nM in assay [1] and 14 nM in assay [2].
As for `O=C(O)c1cc(NC(=O)C2(c3ccc(OC(F)(F)F)cc3)CC2)cc(F)c1-c1cnn(C2CCC2)c1` [Example 37, 2-(1-Cyclobutyl-1H-pyrazol-4-yl)-3-fluoro-5-[({1-[4-(trifluoromethoxy)phenyl]cyclopropyl}carbonyl)amino]benzoic acid], the values for the IC50 in assay [1] and in assay [2] were 20 nM and 5.6 nM, respectively.
Take `O=C(O)c1cc(NC(=O)C2(c3ccc(C(F)(F)F)c(F)c3)CC2)cc(F)c1-c1cnn(C2CCC2)c1` [Example 39, 2-(1-Cyclobutyl-1H-pyrazol-4-yl)-3-fluoro-5-[({1-[3-fluoro-4-(trifluoromethyl)phenyl]cyclopropyl}carbonyl)amino]benzoic acid]: the 50% inhibitory concentration (IC50) in assay [1] amounted to 18 nM; in assay [2] it was 6.1 nM.
`O=C(O)c1cc(NC(=O)C2(c3ccc(F)cc3F)CC2)cc(F)c1-c1cnn(C2CCC2)c1` [Example 40, 2-(1-Cyclobutyl-1H-pyrazol-4-yl)-5-({[1-(2,4-difluorophenyl)cyclopropyl]carbonyl}amino)-3-fluorobenzoic acid]: the values for the IC50 in assay [1] and in assay [2] were 16 nM and 11 nM, respectively.
The like results for `O=C(O)c1cc(NC(=O)C2(c3ccc(Cl)cc3F)CC2)cc(F)c1-c1cnn(C2CCC2)c1` [Example 41, 5-({[1-(4-Chloro-2-fluorophenyl)cyclopropyl]carbonyl}amino)-2-(1-cyclobutyl-1H-pyrazol-4-yl)-3-fluorobenzoic acid] were, in that order, 8.8 nM and 3.7 nM.
The like results for `O=C(O)c1cc(NC(=O)C2(c3ccc(F)cn3)CC2)cc(F)c1-c1cnn(C2CCC2)c1` [Example 44, 2-(1-Cyclobutyl-1H-pyrazol-4-yl)-3-fluoro-5-({[1-(5-fluoropyridin-2-yl)cyclopropyl]carbonyl}amino)benzoic acid] were, in that order, 45 nM and 58 nM.
The like results for `O=C(O)c1cc(NC(=O)C2(c3ccc(OC(F)(F)F)cc3F)CC2)ccc1-c1cnn(C2CCC2)c1` [Example 51, 2-(1-Cyclobutyl-1H-pyrazol-4-yl)-5-[({1-[2-fluoro-4-(trifluoromethoxy)phenyl]cyclopropyl}carbonyl)amino]benzoic acid] were, in that order, 17 nM and 19 nM.
On to `O=C(O)c1cc(NC(=O)C2(c3ccc(Cl)cc3F)CC2)ccc1-c1cnn(C2CCC2)c1` [Example 53, 5-({[1-(4-Chloro-2-fluorophenyl)cyclopropyl]carbonyl}amino)-2-(1-cyclobutyl-1H-pyrazol-4-yl)benzoic acid], for which the half-inhibitory concentration (IC50) in assay [1] is 32 nM; in assay [2] it was 15 nM.
For the molecule `O=C(O)c1cc(NC(=O)C2(c3cc(Cl)ccc3F)CC2)ccc1-c1cnn(C2CCC2)c1` [Example 54, 5-({[1-(5-Chloro-2-fluorophenyl)cyclopropyl]carbonyl}amino)-2-(1-cyclobutyl-1H-pyrazol-4-yl)benzoic acid], the IC50 in assay [1] was found to be 26 nM; in assay [2], 22 nM.
Regarding `CC(C)(C)c1cn(-c2ccc(NC(=O)C3(c4ccc(C(F)(F)F)cc4F)CC3)cc2C(=O)O)cn1` [Example 67, 2-(4-tert-Butyl-1H-imidazol-1-yl)-5-[({1-[2-fluoro-4-(trifluoromethyl)phenyl]cyclopropyl}carbonyl)amino]benzoic acid], the values for the IC50 in assay [1] and in assay [2] were 61 nM and 41 nM, respectively.
